Test results taken from article PMC9181698 (International Journal of Molecular Sciences, 2022).

Columns and labels:
[1] = tested on: ACE2–RBD interaction (Omicron variant RBD-Fc / His-tagged hACE2); assay type: biochemical, SARS-CoV-2; conditions: read-out: Inhibition of ACE2–RBD Interaction
[2] = tested on: SIV pseudotyped with the SARS-CoV-2 spike protein (wt); conditions: SIV pseudotyped with the spike protein (wt, 48 h)
[3] = tested on: SIV pseudotyped with the SARS-CoV-2 spike protein (Alpha); conditions: SIV pseudotyped with the spike protein (Alpha, 48 h)
[4] = tested on: SIV pseudotyped with the SARS-CoV-2 spike protein (Beta); conditions: SIV pseudotyped with the spike protein (Beta, 48 h)
[5] = tested on: SIV pseudotyped with the SARS-CoV-2 spike protein (Delta); conditions: SIV pseudotyped with the spike protein (Delta, 48 h)
[6] = tested on: SIV pseudotyped with the SARS-CoV-2 spike protein (Omicron); conditions: SIV pseudotyped with the spike protein (Omicron, 48 h)
[7] = tested on: pseudovirus with wt SARS-CoV-2 spike carrying E484K + N501Y
[8] = tested on: pseudovirus with wt SARS-CoV-2 spike carrying K417N

| Compound | IC50 [1] | IC50 [2] | IC50 [3] | IC50 [4] | IC50 [5] | IC50 [6] | Reduction in inhibitory activity (virus neutralization) by combination of E484K and N501N [7] | Decrease of susceptibility of the virus to inhibition by mutation K417N, factor [8] |
| --- | --- | --- | --- | --- | --- | --- | --- | --- |
| CC[C@H](C)[C@H](NC(=O)[C@H](CC(C)C)NC(=O)[C@H](CC(=O)O)NC(=O)[C@H](CO)NC(=O)[C@@H](NC(=O)[C@H](CCCNC(=N)N)NC(=O)[C@H](CCSC)NC(=O)[C@H](CO)NC(=O)[C@H](C)NC(=O)[C@H](CCC(=O)O)NC(=O)[C@H](C)NC(=O)[C@H](Cc1c[nH]cn1)NC(=O)CNC(=O)[C@H](CC(C)C)NC(=O)[C@H](CCC(=O)O)NC(=O)[C@H](CC(=O)O)NC(=O)[C@H](CC(C)C)NC(=O)[C@H](CC(C)C)NC(=O)[C@H](CCCNC(=N)N)NC(=O)[C@H](CCSC)NC(=O)[C@@H](NC(=O)[C@H](CCC(=O)O)NC(=O)[C@H](Cc1ccc(O)cc1)NC(=O)[C@@H](NC(=O)[C@H](CCCCN)NC(=O)[C@H](CCC(N)=O)NC(=O)[C@H](CC(C)C)NC(=O)[C@@H](NC(=O)[C@H](Cc1c[nH]c2ccccc12)NC(=O)[C@H](CCC(=O)O)NC(=O)[C@H](CCCCN)NC(=O)[C@H](CC(=O)O)NC(=O)COCCOCCNC(=O)CCCC[C@@H]1SC[C@@H]2NC(=O)N[C@@H]21)[C@@H](C)CC)[C@@H](C)CC)[C@@H](C)CC)C(C)C)C(=O)N[C@@H](Cc1ccc(O)cc1)C(=O)N[C@@H](CCC(=O)O)C(=O)N[C@@H](Cc1ccccc1)C(=O)N[C@@H](CCSC)C(=O)N[C@@H](CCCCN)C(=O)N[C@@H](CCCCN)C(=O)NCC(N)=O [LW25.1] | […] | 1.7 ± 0.11 nM | 8.38 ± 3.31 nM | > 500 nM | 0.71 ± 0.23 nM | > 500 nM |  |  |
| CC[C@H](C)[C@H](NC(=O)[C@H](CC(C)C)NC(=O)[C@H](CC(=O)O)NC(=O)[C@H](CO)NC(=O)[C@@H](NC(=O)[C@H](CCCNC(=N)N)NC(=O)[C@H](CCSC)NC(=O)[C@H](CO)NC(=O)[C@H](C)NC(=O)[C@H](CCC(=O)O)NC(=O)[C@H](C)NC(=O)[C@H](Cc1c[nH]cn1)NC(=O)CNC(=O)[C@H](CC(C)C)NC(=O)[C@H](CCC(=O)O)NC(=O)[C@H](CC(=O)O)NC(=O)[C@H](CC(C)C)NC(=O)[C@H](CC(C)C)NC(=O)[C@H](CCCNC(=N)N)NC(=O)[C@H](CCSC)NC(=O)[C@@H](NC(=O)[C@H](CCC(=O)O)NC(=O)[C@H](Cc1ccc(O)cc1)NC(=O)[C@@H](NC(=O)[C@H](CCCCN)NC(=O)[C@H](CCC(N)=O)NC(=O)[C@H](CC(C)C)NC(=O)[C@@H](NC(=O)[C@H](Cc1c[nH]c2ccccc12)NC(=O)[C@H](CCC(=O)O)NC(=O)[C@H](CCCCN)NC(=O)[C@H](CC(=O)O)NC(=O)COCCOCCNC(=O)COCCOCCNC(=O)CCCC[C@@H]1SC[C@@H]2NC(=O)N[C@@H]21)[C@@H](C)CC)[C@@H](C)CC)[C@@H](C)CC)C(C)C)C(=O)N[C@@H](Cc1ccc(O)cc1)C(=O)N[C@@H](CCC(=O)O)C(=O)N[C@@H](Cc1ccccc1)C(=O)N[C@@H](CCSC)C(=O)N[C@@H](CCCCN)C(=O)N[C@@H](CCCCN)C(=O)NCC(=O)N[C@@H](CC(=O)O)C(=O)N[C@@H](CCC(=O)O)C(=O)N[C@@H](CCCNC(=N)N)C(=O)N[C@@H](CC(C)C)C(=O)N[C@@H](CC(C)C)C(=O)N[C@@H](CCC(=O)O)C(=O)N[C@@H](CCC(=O)O)C(=O)N[C@@H](C)C(=O)N[C@@H](CCC(=O)O)C(=O)N[C@@H](CCCNC(=N)N)C(=O)N[C@@H](CC(C)C)C(=O)N[C@@H](CC(C)C)C(=O)N[C@@H](CCC(=O)O)C(=O)N[C@@H](CCC(=O)O)C(=O)N[C@H](C(=O)N[C@@H](CCC(=O)O)C(N)=O)C(C)C [LW25.3] |  | 5.94 ± 4.17 nM | 13.3 ± 4.55 nM | > 500 nM | 4.52 ± 0.43 nM | > 500 nM |  |  |
| CC[C@H](C)[C@@H]1NC(=O)[C@H](CC(C)C)NC(=O)[C@H](CC(=O)O)NC(=O)[C@H](CO)NC(=O)[C@H](C(C)C)NC(=O)[C@H](CCCNC(=N)N)NC(=O)[C@H](CCSC)NC(=O)[C@H](CO)NC(=O)[C@H](C)NC(=O)[C@H](CCC(=O)O)NC(=O)[C@H](C)NC(=O)[C@H](Cc2c[nH]cn2)NC(=O)CNC(=O)[C@H](CC(C)C)NC(=O)[C@H](CCC(=O)O)NC(=O)[C@H](CC(=O)O)NC(=O)[C@H](CC(C)C)NC(=O)[C@H](CC(C)C)NC(=O)[C@H](CCCNC(=N)N)NC(=O)[C@H](CCSC)NC(=O)[C@H]([C@@H](C)CC)NC(=O)[C@H](CCC(=O)O)NC(=O)[C@H](Cc2ccc(O)cc2)NC(=O)[C@H]([C@@H](C)CC)NC(=O)[C@H](CCCCN)NC(=O)[C@H](CCC(N)=O)NC(=O)[C@H](CC(C)C)NC(=O)[C@H]([C@@H](C)CC)NC(=O)[C@H](Cc2c[nH]c3ccccc23)NC(=O)[C@H](CCC(=O)O)NC(=O)[C@@H](NC(=O)COCCOCCNC(=O)CCCC[C@@H]2SC[C@@H]3NC(=O)N[C@@H]32)CSSC[C@@H](C(N)=O)NC(=O)[C@H](CCCCN)NC(=O)[C@H](CCCCN)NC(=O)[C@H](CCSC)NC(=O)[C@H](Cc2ccccc2)NC(=O)[C@H](CCC(=O)O)NC(=O)[C@H](Cc2ccc(O)cc2)NC1=O [LW25.13] | […] | 0.63 ± 0.24 nM | 1.35 ± 0.08 nM | > 500 nM | 0.68 ± 0.12 nM | > 500 nM | approximately three |  |
| CC[C@H](C)[C@H](NC(=O)[C@H](CC(C)C)NC(=O)[C@H](CC(=O)O)NC(=O)[C@H](CO)NC(=O)[C@@H](NC(=O)[C@H](CCCNC(=N)N)NC(=O)[C@H](CCSC)NC(=O)[C@H](CO)NC(=O)[C@H](C)NC(=O)[C@H](CCC(=O)O)NC(=O)[C@H](C)NC(=O)[C@H](Cc1c[nH]cn1)NC(=O)CNC(=O)[C@H](CC(C)C)NC(=O)[C@H](CCC(=O)O)NC(=O)[C@H](CC(=O)O)NC(=O)[C@H](CC(C)C)NC(=O)[C@H](CC(C)C)NC(=O)[C@H](CCCNC(=N)N)NC(=O)[C@H](CCSC)NC(=O)[C@@H](NC(=O)[C@H](CCC(=O)O)NC(=O)[C@H](Cc1ccc(O)cc1)NC(=O)[C@@H](NC(=O)[C@H](CCCCN)NC(=O)[C@H](CCC(N)=O)NC(=O)[C@H](CC(C)C)NC(=O)[C@@H](NC(=O)[C@H](Cc1c[nH]c2ccccc12)NC(=O)[C@H](CCC(=O)O)NC(=O)[C@H](CCCCN)NC(=O)[C@H](CC(=O)O)NC(=O)COCCOCCNC(=O)CCCC[C@@H]1SC[C@@H]2NC(=O)N[C@@H]21)[C@@H](C)CC)[C@@H](C)CC)[C@@H](C)CC)C(C)C)C(=O)N[C@@H](Cc1ccc(O)cc1)C(=O)N[C@@H](CCC(=O)O)C(=O)N[C@@H](Cc1ccccc1)C(=O)N[C@@H](CCSC)C(=O)N[C@@H](CCCCN)C(N)=O [LW32.2] | […] | 0.93 ± 0.24 nM | 6.15 ± 5.96 nM | > 500 nM | 1.54 ± 0.23 nM | > 500 nM | nine | 25 |
| CC[C@H](C)[C@H](NC(=O)[C@H](CC(C)C)NC(=O)[C@H](CC(=O)O)NC(=O)[C@H](CO)NC(=O)[C@@H](NC(=O)[C@H](CCCNC(=N)N)NC(=O)[C@H](CCSC)NC(=O)[C@H](CO)NC(=O)[C@H](C)NC(=O)[C@H](CCC(=O)O)NC(=O)[C@H](C)NC(=O)[C@H](Cc1c[nH]cn1)NC(=O)CNC(=O)[C@H](CC(C)C)NC(=O)[C@H](CCC(=O)O)NC(=O)[C@H](CC(=O)O)NC(=O)[C@H](CC(C)C)NC(=O)[C@H](CC(C)C)NC(=O)[C@H](CCCNC(=N)N)NC(=O)[C@H](CCSC)NC(=O)[C@@H](NC(=O)[C@H](CCC(=O)O)NC(=O)[C@H](Cc1ccc(O)cc1)NC(=O)[C@@H](NC(=O)[C@H](CCCCN)NC(=O)[C@H](CCC(N)=O)NC(=O)[C@H](CC(C)C)NC(=O)[C@@H](NC(=O)[C@H](Cc1c[nH]c2ccccc12)NC(=O)[C@H](CCC(=O)O)NC(=O)[C@H](CCCCN)NC(=O)[C@H](CC(=O)O)NC(=O)COCCOCCNC(=O)CCCC[C@@H]1SC[C@@H]2NC(=O)N[C@@H]21)[C@@H](C)CC)[C@@H](C)CC)[C@@H](C)CC)C(C)C)C(=O)N[C@@H](Cc1ccc(O)cc1)C(=O)N[C@@H](CCC(=O)O)C(=O)N[C@@H](Cc1ccccc1)C(N)=O [LW32.4] | […] | 11.8 ± 3.5 nM | > 500 nM | > 500 nM | 10.2 ± 1.78 nM | > 500 nM |  |  |
